Source: patent US20090221819A1, “FLUORESCENT COMPOUNDS AND USE OF SAID COMPOUNDS IN MULTIPHOTON METHODS OR DEVICES” (priority 2005, published 2009)

Assays:
Type in all cases: physicochemical
[1] = two-photon absorption (TPA) cross-sections determined by two-photon excitation fluorescence (TPEF); conditions: for σ2, effective TPA cross-section at 700 nm / σ2, effective TPA cross-section at 990 nm / σ2, effective TPA cross-section at 750 nm: in toluene; for σ2, effective TPA cross-section at 700 nm / σ2, effective TPA cross-section at 990 nm: 10^−4 M
Method: The TPA spectra of the […] synthesized compounds (LP42, LP52, CL64, CL108, MC237 and MC263) as well as the reference boron dipyrromethene CL76 were also determined in the near-infrared ([…]) by studying their two-photon excitation fluorescence (TPEF), and are shown in FIG. 9.
The measurements were taken in toluene solutions of 10^−4 M, using a titanium-sapphire laser in locked mode generating pulses of ˜80 fs at 80 MHz.
The quadratic dependence of the fluorescence intensity with the excitation intensity was verified for each point of measurement. The calibration is done with respect to the effective TPEF cross-sections of the fluorescein in water (pH=11), which were determined absolutely in the former literature in the range of 690-1000 nm.
This method provides access to the effective TPEF cross-sections (σ2φ), from which the corresponding effective TPA cross-sections (σ2) are deduced. The data in the literature for compound PM556 are added for comparison.
(§1) Φ represents its fluorescence quantum efficiency, determined with respect to the fluorescein in NaOH 0.1N, σ2 represents its effective TPA cross-section (in GM, with 1 GM=10^−50 cm^4.s.photon^−1); the TPEF measurements were performed with a titanium-sapphire laser in locked mode generating pulses of ˜80 fs at 80 MHz, by calibrating with fluorescein),

[2] = absorption and photoluminescence characteristics (absorption and fluorescence emission spectra, quantum efficiency, lifetime); conditions: in toluene; for Φ, fluorescence quantum efficiency: determined with respect to fluorescein in NaOH 0.1N
Method: The absorption and photoluminescence characteristics of the 4 compounds of which the syntheses are described above were evaluated.
λabs represents the maximum absorption wavelength of the compound,
λem represents its maximum emission wavelength,
as §1
τ represents its fluorescence lifetime (also called the fluorescent decrease time).

water solubility = assay: water solubility

σ2, effective TPA cross-section at 700 nm [1]	σ2, effective TPA cross-section at 990 nm [1]	σ2, effective TPA cross-section at 750 nm ([1]; at 750 nm)	ε, molar extinction coefficient [2]	λabs, maximum absorption wavelength [2]	λem, maximum emission wavelength [2]	Φ, fluorescence quantum efficiency [2]	effective TPA cross-section relative to model CL76 at 700 nm ([1]; ratio to CL76)	τ, fluorescence lifetime [2]	effective TPA cross-section relative to model CL76 at 750 nm ([1]; at 750 nm, ratio to CL76)	water solubility (water solubility)	Compound	effective TPA cross-section relative to model CL76 at 990 nm ([1]; ratio to CL76)
93 GM	34 GM	–	216400 M⁻¹ cm⁻¹	528 nm	544 nm	0.89	4 times	3.95 ns	–	–	CCC1=C(C)C2=C(c3ccc(C#Cc4ccc(-c5cc(-c6ccc(C#Cc7ccc(C8=C9C(C)=C(CC)C(C)=[N+]9[B-](F)(F)n9c(C)c(CC)c(C)c98)cc7)cc6)cc(-c6ccc(C#Cc7ccc(C8=C9C(C)=C(CC)C(C)=[N+]9[B-](F)(F)n9c(C)c(CC)c(C)c98)cc7)cc6)c5)cc4)cc3)c3c(C)c(CC)c(C)n3[B-](F)(F)[N+]2=C1C [MC237]	–
185 GM	40 GM	270 GM	211100 M⁻¹ cm⁻¹	528 nm	542 nm	1	–	4.36 ns	18	–	CCC1=C(C)C2=C(c3ccc(-c4cn(-c5ccc(C#Cc6ccc(N(c7ccc(C#Cc8ccc(-n9cc(-c%10ccc(C%11=C%12C(C)=C(CC)C(C)=[N+]%12[B-](F)(F)n%12c(C)c(CC)c(C)c%12%11)cc%10)nn9)cc8)cc7)c7ccc(C#Cc8ccc(-n9cc(-c%10ccc(C%11=C%12C(C)=C(CC)C(C)=[N+]%12[B-](F)(F)n%12c(C)c(CC)c(C)c%12%11)cc%10)nn9)cc8)cc7)cc6)cc5)nn4)cc3)c3c(C)c(CC)c(C)n3[B-](F)(F)[N+]2=C1C [MC263]	–
–	–	–	–	–	–	–	–	–	–	perfectly water-soluble	CC1=C(S(=O)(=O)[O-])C(C)=[N+]2C1=C(c1ccc(C#Cc3ccc(-c4cc(-c5ccc(C#Cc6ccc(C7=C8C(C)=C(S(=O)(=O)[O-])C(C)=[N+]8[B-](F)(F)n8c(C)c(S(=O)(=O)[O-])c(C)c87)cc6)cc5)cc(-c5ccc(C#Cc6ccc(C7=C8C(C)=C(S(=O)(=O)[O-])C(C)=[N+]8[B-](F)(F)n8c(C)c(S(=O)(=O)[O-])c(C)c87)cc6)cc5)c4)cc3)cc1)c1c(C)c(S(=O)(=O)[O-])c(C)n1[B-]2(F)F.[Na+].[Na+].[Na+].[Na+].[Na+].[Na+] [MC297]	–

The next lines start with the compound.

Compound	σ2, effective TPA cross-section at 700 nm [1]	σ2, effective TPA cross-section at 990 nm [1]	σ2, effective TPA cross-section at 750 nm ([1]; at 750 nm)	ε, molar extinction coefficient [2]	λabs, maximum absorption wavelength [2]	λem, maximum emission wavelength [2]	Φ, fluorescence quantum efficiency [2]	effective TPA cross-section relative to model CL76 at 700 nm ([1]; ratio to CL76)	τ, fluorescence lifetime [2]	effective TPA cross-section relative to model CL76 at 750 nm ([1]; at 750 nm, ratio to CL76)	water solubility (water solubility)	effective TPA cross-section relative to model CL76 at 990 nm ([1]; ratio to CL76)
|4-ethyl-2-|(4-ethyl-3,5-dimethyl-2H-pyrrol-2-ylidene)phenyl methyl|-3,5-dimethyl-1H-pyrrolato|difluoroboron [CL76, reference compound]	20 GM	20 GM	15 GM	76180 M⁻¹ cm⁻¹	527 nm	539 nm	0.75	–	–	–	–	–
CCC1=C(C)C2=C(c3ccc(C#Cc4ccc(N(c5ccc(C#Cc6ccc(C7=C8C(C)=C(CC)C(C)=[N+]8[B-](F)(F)n8c(C)c(CC)c(C)c87)cc6)cc5)c5ccc(C#Cc6ccc(C7=C8C(C)=C(CC)C(C)=[N+]8[B-](F)(F)n8c(C)c(CC)c(C)c87)cc6)cc5)cc4)cc3)c3c(C)c(CC)c(C)n3[B-](F)(F)[N+]2=C1C [CL64]	190 GM	45 GM	–	221700 M⁻¹ cm⁻¹	528 nm	543 nm	0.93	9 times	4.02 ns	–	–	–
CCC1=C(C)C2=C(c3ccc(-c4ccc(C5=C6C(C)=C(CC)C(C)=[N+]6[B-](F)(F)n6c(C)c(CC)c(C)c65)cc4)cc3)c3c(C)c(CC)c(C)n3[B-](F)(F)[N+]2=C1C [LP42, tetrafluoro[1-[2,2′-[(1,1′-biphenyl)-4,4′-diylbis[[4-ethyl-3,5-dimethyl-2H-pyrrol-2-ylidene-]methylene]]bis[4-ethyl-3,5-dimethyl-1H-pyrrolato]]]diboron]	57 GM	48 GM	–	161900 M⁻¹ cm⁻¹	527 nm	542 nm	0.72	3 times	4.76 ns	–	–	2.5 times
CCC1=C(C)C2=C(c3ccc(-c4cc(-c5ccc(C6=C7C(C)=C(CC)C(C)=[N+]7[B-](F)(F)n7c(C)c(CC)c(C)c76)cc5)cc(-c5ccc(C6=C7C(C)=C(CC)C(C)=[N+]7[B-](F)(F)n7c(C)c(CC)c(C)c76)cc5)c4)cc3)c3c(C)c(CC)c(C)n3[B-](F)(F)[N+]2=C1C [LP52, hexafluoro[μ3-[2,2′2″-[1,3,5-benzenetriyltris[4,1-phenylene[[4-ethyl-3,5-dimethyl-2H-pyrrol-2-ylidene]methylene]]tris[4-ethyl-3,5-dimethyl-1H-pyrrolato]]]]triboron]	82 GM	75 GM	–	244300 M⁻¹ cm⁻¹	527 nm	542 nm	0.69	4 times	4.78 ns	–	–	3.75 times
